Experiments:
Assay in all cases: relative viability (nuclei count vs DMSO), 5 days (fraction); higher = more cells survive
[1] = compound: CC1=NC=CC(=C1)C2=CC=C(C=C2)CC(=O)NC3=CC=C(C=C3)C4=CN=CC=C4 [Wnt-C59] + Cc1nc(Nc2ncc(C(=O)Nc3c(C)cccc3Cl)s2)cc(N2CCN(CCO)CC2)n1 [Dasatinib] (partner 0.075 µM)
How it was run: (§1)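 Relative viability is defined as nuclei in treated wells over nuclei in vehicle wells. Duplicate plates were run and medians reported. Lung cancer cell lines in 1536-well plates were dosed by pin tool one day after seeding, with one drug or with a fixed anchor-drug dose plus five library-drug doses (not always all listed) in √10 steps, and nuclei were counted after 5 days.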

[2] = compound: CS(=O)(=O)CCNCc1ccc(-c2ccc3ncnc(Nc4ccc(OCc5cccc(F)c5)c(Cl)c4)c3c2)o1 [Lapatinib] + COc1cc2c(Oc3ccc(NC(=O)C4(C(=O)Nc5ccc(F)cc5)CC4)cc3F)ccnc2cc1OCCCN1CCOCC1 [Foretinib] (partner 0.25 µM)
How it was run: as §1

[3] = compound: CC1=NC=CC(=C1)C2=CC=C(C=C2)CC(=O)NC3=CC=C(C=C3)C4=CN=CC=C4 [Wnt-C59] + Cc1cc(Nc2cc(N3CCN(C)CC3)nc(Sc3ccc(NC(=O)C4CC4)cc3)n2)n[nH]1 [Tozasertib] (partner 0.1 µM)
How it was run: as §1

[4] = compound: CS(=O)(=O)CCNCc1ccc(-c2ccc3ncnc(Nc4ccc(OCc5cccc(F)c5)c(Cl)c4)c3c2)o1 [Lapatinib] + CS(=O)(=O)N1CCN(Cc2cc3nc(-c4cccc5[nH]ncc45)nc(N4CCOCC4)c3s2)CC1 [Pictilisib] (partner 1 µM)
How it was run: as §1

## A-427
[1]; first compound 0.001 µM
  relative viability: 0.71
[1]; first compound 0.01 µM
  relative viability: 0.682
[1]; first compound 0.03162 µM
  relative viability: 0.768
[1]; first compound 0.1 µM
  relative viability: 0.798
[2]; first compound 0.06325 µM
  relative viability: 0.905
[2]; first compound 0.2 µM
  relative viability: 1.1
[2]; first compound 0.6325 µM
  relative viability: 1.08
[2]; first compound 2 µM
  relative viability: 0.859
[3]; first compound 0.001 µM
  relative viability: 0.217
[3]; first compound 0.01 µM
  relative viability: 0.183
[3]; first compound 0.03162 µM
  relative viability: 0.211
[3]; first compound 0.1 µM
  relative viability: 0.243
[4]; first compound 0.06325 µM
  relative viability: 0.602
[4]; first compound 0.2 µM
  relative viability: 0.854
[4]; first compound 0.6325 µM
  relative viability: 0.765
[4]; first compound 2 µM
  relative viability: 0.665

## 201T
[1]; first compound 0.001 µM
  relative viability: 0.615
[1]; first compound 0.01 µM
  relative viability: 0.578
[1]; first compound 0.03162 µM
  relative viability: 0.505
[1]; first compound 0.1 µM
  relative viability: 0.558
[2]; first compound 0.02 µM
  relative viability: 1.18
[2]; first compound 0.2 µM
  relative viability: 1.03
[2]; first compound 0.6325 µM
  relative viability: 1.03
[2]; first compound 2 µM
  relative viability: 0.76
[3]; first compound 0.001 µM
  relative viability: 0.96
[3]; first compound 0.01 µM
  relative viability: 0.923
[3]; first compound 0.03162 µM
  relative viability: 1.05
[3]; first compound 0.1 µM
  relative viability: 0.952
[4]; first compound 0.02 µM
  relative viability: 0.603
[4]; first compound 0.06325 µM
  relative viability: 0.656
[4]; first compound 0.2 µM
  relative viability: 0.675
[4]; first compound 0.6325 µM
  relative viability: 0.659
[4]; first compound 2 µM
  relative viability: 0.638

## NCI-H1944
[1]; first compound 0.001 µM
  relative viability: 0.24
[1]; first compound 0.01 µM
  relative viability: 0.218
[1]; first compound 0.03162 µM
  relative viability: 0.195
[1]; first compound 0.1 µM
  relative viability: 0.179
[2]; first compound 0.02 µM
  relative viability: 0.836
[2]; first compound 0.06325 µM
  relative viability: 0.637
[2]; first compound 0.2 µM
  relative viability: 0.745
[2]; first compound 0.6325 µM
  relative viability: 0.723
[2]; first compound 2 µM
  relative viability: 0.537
[3]; first compound 0.001 µM
  relative viability: 0.237
[3]; first compound 0.01 µM
  relative viability: 0.261
[3]; first compound 0.03162 µM
  relative viability: 0.263
[3]; first compound 0.1 µM
  relative viability: 0.246
[4]; first compound 0.2 µM
  relative viability: 0.348
[4]; first compound 0.6325 µM
  relative viability: 0.343
[4]; first compound 2 µM
  relative viability: 0.318

## SK-LU-1
[1]; first compound 0.001 µM
  relative viability: 0.184
[1]; first compound 0.01 µM
  relative viability: 0.187
[1]; first compound 0.03162 µM
  relative viability: 0.198
[1]; first compound 0.1 µM
  relative viability: 0.187
[2]; first compound 0.02 µM
  relative viability: 0.773
[2]; first compound 0.06325 µM
  relative viability: 0.789
[2]; first compound 0.2 µM
  relative viability: 0.857
[2]; first compound 0.6325 µM
  relative viability: 0.8
[2]; first compound 2 µM
  relative viability: 0.883
[3]; first compound 0.001 µM
  relative viability: 0.317
[3]; first compound 0.01 µM
  relative viability: 0.323
[3]; first compound 0.03162 µM
  relative viability: 0.331
[3]; first compound 0.1 µM
  relative viability: 0.295
[4]; first compound 0.06325 µM
  relative viability: 0.504
[4]; first compound 0.2 µM
  relative viability: 0.634
[4]; first compound 0.6325 µM
  relative viability: 0.754
[4]; first compound 2 µM
  relative viability: 0.57

## NCI-H1975
[1]; first compound 0.001 µM
  relative viability: 0.412
[1]; first compound 0.01 µM
  relative viability: 0.31
[1]; first compound 0.03162 µM
  relative viability: 0.349
[1]; first compound 0.1 µM
  relative viability: 0.447
[2]; first compound 0.02 µM
  relative viability: 0.924
[2]; first compound 0.06325 µM
  relative viability: 0.855
[2]; first compound 0.2 µM
  relative viability: 1.02
[2]; first compound 0.6325 µM
  relative viability: 0.835
[2]; first compound 2 µM
  relative viability: 0.715
[3]; first compound 0.001 µM
  relative viability: 0.789
[3]; first compound 0.01 µM
  relative viability: 0.705
[3]; first compound 0.03162 µM
  relative viability: 0.776
[3]; first compound 0.1 µM
  relative viability: 0.744
[4]; first compound 0.02 µM
  relative viability: 0.281
[4]; first compound 0.06325 µM
  relative viability: 0.24
[4]; first compound 0.2 µM
  relative viability: 0.309
[4]; first compound 0.6325 µM
  relative viability: 0.329
[4]; first compound 2 µM
  relative viability: 0.192

## NCI-H322M
[1]; first compound 0.001 µM
  relative viability: 0.266
[1]; first compound 0.01 µM
  relative viability: 0.26
[1]; first compound 0.03162 µM
  relative viability: 0.216
[1]; first compound 0.1 µM
  relative viability: 0.228
[2]; first compound 0.02 µM
  relative viability: 1.04
[2]; first compound 0.06325 µM
  relative viability: 0.809
[2]; first compound 0.2 µM
  relative viability: 0.944
[2]; first compound 0.6325 µM
  relative viability: 0.911
[2]; first compound 2 µM
  relative viability: 0.611
[3]; first compound 0.001 µM
  relative viability: 0.444
[3]; first compound 0.01 µM
  relative viability: 0.432
[3]; first compound 0.03162 µM
  relative viability: 0.454
[3]; first compound 0.1 µM
  relative viability: 0.427
[4]; first compound 0.02 µM
  relative viability: 0.555
[4]; first compound 0.06325 µM
  relative viability: 0.31
[4]; first compound 0.2 µM
  relative viability: 0.483
[4]; first compound 0.6325 µM
  relative viability: 0.504
[4]; first compound 2 µM
  relative viability: 0.404

## NCI-H1793
[1]; first compound 0.001 µM
  relative viability: 0.431
[1]; first compound 0.03162 µM
  relative viability: 0.468
[1]; first compound 0.1 µM
  relative viability: 0.355
[2]; first compound 0.06325 µM
  relative viability: 0.5
[2]; first compound 0.2 µM
  relative viability: 0.497
[2]; first compound 0.6325 µM
  relative viability: 0.524
[2]; first compound 2 µM
  relative viability: 0.422
[3]; first compound 0.001 µM
  relative viability: 0.309
[3]; first compound 0.03162 µM
  relative viability: 0.302
[3]; first compound 0.1 µM
  relative viability: 0.345
[4]; first compound 0.6325 µM
  relative viability: 0.368
[4]; first compound 2 µM
  relative viability: 0.318

## RERF-LC-KJ
[1]; first compound 0.001 µM
  relative viability: 0.866
[1]; first compound 0.01 µM
  relative viability: 0.847
[1]; first compound 0.03162 µM
  relative viability: 1.04
[1]; first compound 0.1 µM
  relative viability: 0.79
[2]; first compound 0.02 µM
  relative viability: 0.887
[2]; first compound 0.06325 µM
  relative viability: 0.794
[2]; first compound 0.2 µM
  relative viability: 0.924
[2]; first compound 0.6325 µM
  relative viability: 0.85
[2]; first compound 2 µM
  relative viability: 0.759
[3]; first compound 0.001 µM
  relative viability: 0.48
[3]; first compound 0.01 µM
  relative viability: 0.561
[3]; first compound 0.03162 µM
  relative viability: 0.515
[3]; first compound 0.1 µM
  relative viability: 0.481
[4]; first compound 0.02 µM
  relative viability: 0.472
[4]; first compound 0.06325 µM
  relative viability: 0.907
[4]; first compound 0.2 µM
  relative viability: 0.595
[4]; first compound 0.6325 µM
  relative viability: 0.438
[4]; first compound 2 µM
  relative viability: 0.325

## NCI-H23
[1]; first compound 0.001 µM
  relative viability: 0.885
[1]; first compound 0.01 µM
  relative viability: 0.734
[1]; first compound 0.03162 µM
  relative viability: 0.829
[1]; first compound 0.1 µM
  relative viability: 0.698
[2]; first compound 0.2 µM
  relative viability: 0.908
[2]; first compound 0.6325 µM
  relative viability: 0.958
[2]; first compound 2 µM
  relative viability: 0.898
[3]; first compound 0.001 µM
  relative viability: 0.377
[3]; first compound 0.01 µM
  relative viability: 0.33
[3]; first compound 0.03162 µM
  relative viability: 0.446
[3]; first compound 0.1 µM
  relative viability: 0.333
[4]; first compound 0.2 µM
  relative viability: 0.506
[4]; first compound 0.6325 µM
  relative viability: 0.482
[4]; first compound 2 µM
  relative viability: 0.483

## NCI-H2347
[1]; first compound 0.001 µM
  relative viability: 0.35
[1]; first compound 0.01 µM
  relative viability: 0.295
[1]; first compound 0.03162 µM
  relative viability: 0.327
[1]; first compound 0.1 µM
  relative viability: 0.306
[2]; first compound 0.06325 µM
  relative viability: 0.694
[2]; first compound 0.2 µM
  relative viability: 0.854
[2]; first compound 0.6325 µM
  relative viability: 0.994
[2]; first compound 2 µM
  relative viability: 1.02
[3]; first compound 0.001 µM
  relative viability: 0.581
[3]; first compound 0.01 µM
  relative viability: 0.453
[3]; first compound 0.03162 µM
  relative viability: 0.446
[3]; first compound 0.1 µM
  relative viability: 0.618
[4]; first compound 0.02 µM
  relative viability: 0.598
[4]; first compound 0.06325 µM
  relative viability: 0.673
[4]; first compound 0.2 µM
  relative viability: 0.663
[4]; first compound 0.6325 µM
  relative viability: 0.646
[4]; first compound 2 µM
  relative viability: 0.873

## LCLC-97TM1
[1]; first compound 0.001 µM
  relative viability: 0.764
[1]; first compound 0.01 µM
  relative viability: 0.75
[1]; first compound 0.03162 µM
  relative viability: 0.772
[1]; first compound 0.1 µM
  relative viability: 0.889
[2]; first compound 0.2 µM
  relative viability: 0.843
[2]; first compound 0.6325 µM
  relative viability: 0.973
[2]; first compound 2 µM
  relative viability: 1.02
[3]; first compound 0.001 µM
  relative viability: 0.252
[3]; first compound 0.01 µM
  relative viability: 0.205
[3]; first compound 0.03162 µM
  relative viability: 0.226
[3]; first compound 0.1 µM
  relative viability: 0.182
[4]; first compound 0.2 µM
  relative viability: 0.223
[4]; first compound 0.6325 µM
  relative viability: 0.227
[4]; first compound 2 µM
  relative viability: 0.203

Source: the supplement of paper PMC10307832
